In patent publication US7038036B2, “Oligonucleotides labeled with stable isotopes and a method for detecting the same” (Taiyo Nippon Sanso Corporation, priority 1999, dated 2006):
“Also recorded” adds a separate entry of the source.

Assay: NMR detection of 13C/15N-labeled RNA in mouse serum sampled three hours after inoculation into the tail
Type: in vivo, mice (BALB/cAnNCr)
Details: for signals derived from base pairs, 500 MHz 1H-NMR spectra of exchangeable protons (imino protons) / signals derived from nucleic acid bases, 500 MHz 1H-NMR spectra of non-exchangeable protons (9 to 6.5 ppm): 25° C.
Protocol: Four female SPF/VAF mice (BALB/cAnNCr, 8 weeks old, No. 1 to No. 4) supplied by Charles River Japan, Inc. were used for the experiment.
The abovementioned oligonucleotide (5 mg) was dissolved in 120 μl of a physiological saline solution to prepare four […] samples. Two samples were administered without a drug delivery system. The abovementioned histone subunit mixture was added to the remaining two samples to form a complex. • Sample 1: ^13C—^15N-labeled RNA (inoculated into and sampled from No. 1 mouse) • Sample 2: ^13C—^15N-labeled RNA (inoculated into and sampled from No. 2 mouse) • Sample 3: the complex of ^13C—^15N-labeled RNA and the drug delivery system (inoculated into and sampled from No. 3 mouse) • Sample 4: the complex of ^13C—^15N-labeled RNA and the drug delivery system (inoculated into and sampled from No. 4 mouse)
Each sample solution (100 μl), which was adjusted to 62.5 mg/kg, was inoculated into the tail of the abovementioned mice. Three hours after the inoculation, the mice were anesthetized with ether and about 1 ml of whole blood was sampled from the heart. This whole blood was allowed to stand at room temperature for 30 minutes, and then centrifuged at 1,500 rpm at room temperature for 15 minutes. Supernatant serum obtained by the centrifugation was subjected to NMR measurement as follows. Heavy water (20 μl) was added to the samples (400 μl each) obtained by the abovementioned centrifugation, and the measurement of NMR spectra was carried out at 25° C. A DRX-500 NMR spectrometer (BRUKER) was used for the measurement. Pre-saturation was carried out for the measurement of non-exchangeable protons and jump-and-return pulses were used for the measurement of exchangeable imino proton spectra.

[1] = mouse serum, three hours after inoculation, 62.5 mg/kg, 62.5 mg/kg
[2] = mouse serum, three hours after inoculation, 62.5 mg/kg, listed as Sample 2, 62.5 mg/kg

Substance: Sample 1: oligonucleotide comprising 43 bases shown in SEQ ID No. 1, RNA labeled with 13C and 15N, administered without a drug delivery system (antisense GGGAGAGGGCAACCUGACCUGUUAUCAUCGCAAGAAGCUUCCG; RNA, phosphodiester; uniformly 13C/15N isotope-labeled ribonucleotides)
- detection of the oligonucleotide by NMR (complex with the drug delivery system (histone subunit mixture) formed, mouse serum, three hours after inoculation): entire length of the oligonucleotide was detected
- 13C-1H HMQC spectra of non-exchangeable protons (mouse serum, three hours after inoculation, 62.5 mg/kg): Only noise, and no spectrum derived from RNA
- signals derived from base pairs, 500 MHz 1H-NMR spectra of exchangeable protons (imino protons) [1]: Absolutely no signal; also recorded: barely detected
- signals derived from nucleic acid bases, 500 MHz 1H-NMR spectra of non-exchangeable protons (9 to 6.5 ppm) [1]: only extremely weak signals; also recorded: barely detected
- signals derived from base pairs, 500 MHz 1H-NMR spectra of exchangeable protons (imino protons) [2]: Absolutely no signal; also recorded: barely detected
- signals derived from nucleic acid bases, 500 MHz 1H-NMR spectra of non-exchangeable protons (9 to 6.5 ppm) [2]: only extremely weak signals; also recorded: barely detected
- detection of the oligonucleotide by NMR (no complex with the drug delivery system formed, mouse serum, three hours after inoculation): barely detected
- time the antisense chain existed in the blood (when the drug delivery system was used, mice): up to 3 hours
- decomposition of the RNA present in the blood (when the drug delivery system was used, mice, three hours after inoculation): did not undergo partial decomposition
